Test system: patients with advanced solid tumors
Assay: Safety: treatment-emergent and senaparib-related adverse events graded per NCI CTCAE v4.03
Format: in vivo
Details: TEAE
Experimental: This phase I, open-label, multicenter, dose-escalation, and dose-expansion study was conducted at three national clinical institutions in China. […] At baseline, all patients enrolled in the dose-escalation phase had to have at least one evaluable lesion, and those in the dose-expansion period had to have at least one measurable lesion, according to Response Evaluation Criteria in Solid Tumors version 1.1 (RECIST v1.1).[16] Entry to the dose-expansion cohort required the presence of a BRCA mutation, with the exception of patients with ovarian carcinoma, fallopian tube carcinoma, and primary peritoneal carcinoma. Full study eligibility criteria are provided in Supplementary Table S1.
Dose escalation was conducted using a modified Fibonacci 3 + 3 method (Supplementary Fig. S1).[17] Patients were administered oral senaparib from a planned starting dose of 2 mg once daily (QD), with preliminary dose escalation to 120 mg via nine dose groups, in order of their entry into the study. At a given dose level, each patient received a single dose of senaparib followed by a 7-day washout period. They then entered a continuous dosing period to confirm the safety and PK profile, in which they received senaparib QD from day 1 to day 21 of each 3-week cycle. Progression to the next higher dose required approval from the Data Safety Monitoring Committee (DSMC) upon review of the safety and PK data of the previous dose. A 50-mg twice-daily (BID) dosing group was added (planned enrollment, n = 6 patients) based on a DSMC review of the safety, PK, and efficacy analysis of the completed QD dose groups in the phase I clinical trial of senaparib dose escalation in Australia (NCT03507543), which commenced prior to the start of this trial.
The dose-expansion period included 3 populations: dose groups in which at least one patient achieved complete response (CR) or partial response (PR) per RECIST v1.1[16] and 1 dose group higher (evaluated for safety), as well as the dose group at the maximum tolerated dose (MTD)/recommended phase II dose (RP2D). Each of these groups included those patients in the respective dose-escalation group plus a planned additional 10 patients (approximately 20 patients in the MTD/RP2D group) with BRCA^mut+ solid tumors (ovarian, breast, or prostate cancer were preferred, and ovarian cancer could be BRCA wild type). Patients received senaparib monotherapy orally QD or BID (50-mg dose only) over each 3-week cycle until disease progression or unacceptable toxicity.
DLTs were predefined toxicities (Supplementary Table S2) recorded over the 7 days following the single-dose administration of senaparib and during the first treatment cycle (day 1-day 21) for each dose group in the dose-escalation period only. The MTD was defined as the maximum dose at which ≤1/6 patients experienced a DLT. Senaparib PK parameters were derived from blood samples collected from patients after the single administration, and at regular intervals during the first cycle of the dose-escalation and dose-expansion periods. Plasma concentrations of senaparib were determined using high-performance liquid chromatography-tandem mass spectrometry. Tumor response was assessed every 6 weeks per RECIST v1.1,[16] recording objective response rate (ORR), disease control rate (DCR), duration of response (DOR), and progression-free survival (PFS) by dose level for all patients and for those harboring BRCA^mut+ tumors.

Compound: O=C(c1cc(Cn2c(=O)[nH]c(=O)c3c(F)cccc32)ccc1F)N1CCN(c2ncccn2)CC1 [Senaparib]
- Vomiting, Gr≥3 (10 mg QD n = 3): 0 n (%)
- WBC decreased, All (10 mg QD n = 3): 1 (33.3) n (%)
- WBC decreased, Gr≥3 (10 mg QD n = 3): 0 n (%)
- ALT increased, All (20 mg QD n = 5): 0 n (%)
- ALT increased, Gr≥3 (20 mg QD n = 5): 0 n (%)
- AST increased, All (20 mg QD n = 5): 0 n (%)
- AST increased, Gr≥3 (20 mg QD n = 5): 0 n (%)
- Abdominal distension, All (20 mg QD n = 5): 1 (20.0) n (%)
- Abdominal distension, Gr≥3 (20 mg QD n = 5): 0 n (%)
- Anemia (incl. hemoglobin decreased), All (20 mg QD n = 5): 1 (20.0) n (%)
- Anemia (incl. hemoglobin decreased), Gr≥3 (20 mg QD n = 5): 1 (20.0) n (%)
- Appetite decreased, All (20 mg QD n = 5): 1 (20.0) n (%)
- Appetite decreased, Gr≥3 (20 mg QD n = 5): 0 n (%)
- Asthenia, All (20 mg QD n = 5): 1 (20.0) n (%)
- Asthenia, Gr≥3 (20 mg QD n = 5): 0 n (%)
- Blood bilirubin increased, All (20 mg QD n = 5): 0 n (%)
- Blood bilirubin increased, Gr≥3 (20 mg QD n = 5): 0 n (%)
- Blood creatinine increased, All (20 mg QD n = 5): 1 (20.0) n (%)
- Blood creatinine increased, Gr≥3 (20 mg QD n = 5): 0 n (%)
- Hypokalemia, All (20 mg QD n = 5): 1 (20.0) n (%)
- Hypokalemia, Gr≥3 (20 mg QD n = 5): 0 n (%)
- Hyponatremia, All (20 mg QD n = 5): 0 n (%)
- Hyponatremia, Gr≥3 (20 mg QD n = 5): 0 n (%)
- Nausea, All (20 mg QD n = 5): 1 (20.0) n (%)
- Nausea, Gr≥3 (20 mg QD n = 5): 0 n (%)
- Neutrophil count decreased, All (20 mg QD n = 5): 0 n (%)
- Neutrophil count decreased, Gr≥3 (20 mg QD n = 5): 0 n (%)
- Pain in extremity, All (20 mg QD n = 5): 1 (20.0) n (%)
- Pain in extremity, Gr≥3 (20 mg QD n = 5): 1 (20.0) n (%)
- Platelet count decreased, All (20 mg QD n = 5): 1 (20.0) n (%)
- Platelet count decreased, Gr≥3 (20 mg QD n = 5): 0 n (%)
- Protein in urine, All (20 mg QD n = 5): 1 (20.0) n (%)
- Protein in urine, Gr≥3 (20 mg QD n = 5): 0 n (%)
- Vomiting, All (20 mg QD n = 5): 0 n (%)
- Vomiting, Gr≥3 (20 mg QD n = 5): 0 n (%)
- WBC decreased, All (20 mg QD n = 5): 1 (20.0) n (%)
- WBC decreased, Gr≥3 (20 mg QD n = 5): 0 n (%)
- ALT increased, All (40 mg QD n = 3): 0 n (%)
- ALT increased, Gr≥3 (40 mg QD n = 3): 0 n (%)
- AST increased, All (40 mg QD n = 3): 0 n (%)
- AST increased, Gr≥3 (40 mg QD n = 3): 0 n (%)
- Abdominal distension, All (40 mg QD n = 3): 0 n (%)
- Abdominal distension, Gr≥3 (40 mg QD n = 3): 0 n (%)
- Anemia (incl. hemoglobin decreased), All (40 mg QD n = 3): 1 (33.3) n (%)
- Anemia (incl. hemoglobin decreased), Gr≥3 (40 mg QD n = 3): 0 n (%)
- Appetite decreased, All (40 mg QD n = 3): 0 n (%)
- Appetite decreased, Gr≥3 (40 mg QD n = 3): 0 n (%)
- Asthenia, All (40 mg QD n = 3): 1 (33.3) n (%)
- Asthenia, Gr≥3 (40 mg QD n = 3): 0 n (%)
- Blood bilirubin increased, All (40 mg QD n = 3): 0 n (%)
- Blood bilirubin increased, Gr≥3 (40 mg QD n = 3): 0 n (%)
- Blood creatinine increased, All (40 mg QD n = 3): 1 (33.3) n (%)
- Blood creatinine increased, Gr≥3 (40 mg QD n = 3): 0 n (%)
- Hypokalemia, All (40 mg QD n = 3): 0 n (%)
- Hypokalemia, Gr≥3 (40 mg QD n = 3): 0 n (%)
- Hyponatremia, All (40 mg QD n = 3): 0 n (%)
- Hyponatremia, Gr≥3 (40 mg QD n = 3): 0 n (%)
- Nausea, All (40 mg QD n = 3): 0 n (%)
- Nausea, Gr≥3 (40 mg QD n = 3): 0 n (%)
- Neutrophil count decreased, All (40 mg QD n = 3): 0 n (%)
- Neutrophil count decreased, Gr≥3 (40 mg QD n = 3): 0 n (%)
- Pain in extremity, All (40 mg QD n = 3): 0 n (%)
- Pain in extremity, Gr≥3 (40 mg QD n = 3): 0 n (%)
- Platelet count decreased, All (40 mg QD n = 3): 0 n (%)
- Platelet count decreased, Gr≥3 (40 mg QD n = 3): 0 n (%)
- Protein in urine, All (40 mg QD n = 3): 0 n (%)
- Protein in urine, Gr≥3 (40 mg QD n = 3): 0 n (%)
- Vomiting, All (40 mg QD n = 3): 0 n (%)
- Vomiting, Gr≥3 (40 mg QD n = 3): 0 n (%)
- WBC decreased, All (40 mg QD n = 3): 0 n (%)
- WBC decreased, Gr≥3 (40 mg QD n = 3): 0 n (%)
- ALT increased, All (50 mg BID n = 4): 1 (25.0) n (%)
- ALT increased, Gr≥3 (50 mg BID n = 4): 0 n (%)
- AST increased, All (50 mg BID n = 4): 1 (25.0) n (%)
- AST increased, Gr≥3 (50 mg BID n = 4): 0 n (%)
- Abdominal distension, All (50 mg BID n = 4): 0 n (%)
- Abdominal distension, Gr≥3 (50 mg BID n = 4): 0 n (%)
- Anemia (incl. hemoglobin decreased), All (50 mg BID n = 4): 3 (75.0) n (%)
- Anemia (incl. hemoglobin decreased), Gr≥3 (50 mg BID n = 4): 2 (50.0) n (%)
- Appetite decreased, All (50 mg BID n = 4): 0 n (%)
- Appetite decreased, Gr≥3 (50 mg BID n = 4): 0 n (%)
- Asthenia, All (50 mg BID n = 4): 1 (25.0) n (%)
- Asthenia, Gr≥3 (50 mg BID n = 4): 0 n (%)
- Blood bilirubin increased, All (50 mg BID n = 4): 0 n (%)
- Blood bilirubin increased, Gr≥3 (50 mg BID n = 4): 0 n (%)
- Blood creatinine increased, All (50 mg BID n = 4): 0 n (%)
- Blood creatinine increased, Gr≥3 (50 mg BID n = 4): 0 n (%)
- Hypokalemia, All (50 mg BID n = 4): 0 n (%)
- Hypokalemia, Gr≥3 (50 mg BID n = 4): 0 n (%)
- Hyponatremia, All (50 mg BID n = 4): 3 (75.0) n (%)
- Hyponatremia, Gr≥3 (50 mg BID n = 4): 1 (25.0) n (%)
- Nausea, All (50 mg BID n = 4): 2 (50.0) n (%)
- Nausea, Gr≥3 (50 mg BID n = 4): 0 n (%)
- Neutrophil count decreased, All (50 mg BID n = 4): 0 n (%)
- Neutrophil count decreased, Gr≥3 (50 mg BID n = 4): 0 n (%)
- Pain in extremity, All (50 mg BID n = 4): 0 n (%)
- Pain in extremity, Gr≥3 (50 mg BID n = 4): 0 n (%)
- Platelet count decreased, All (50 mg BID n = 4): 1 (25.0) n (%)
- Platelet count decreased, Gr≥3 (50 mg BID n = 4): 0 n (%)
- Protein in urine, All (50 mg BID n = 4): 0 n (%)
- Protein in urine, Gr≥3 (50 mg BID n = 4): 0 n (%)
- Vomiting, All (50 mg BID n = 4): 2 (50.0) n (%)
- Vomiting, Gr≥3 (50 mg BID n = 4): 0 n (%)
- WBC decreased, All (50 mg BID n = 4): 2 (50.0) n (%)
- WBC decreased, Gr≥3 (50 mg BID n = 4): 0 n (%)
- ALT increased, All (60 mg QD n = 5): 0 n (%)
- ALT increased, Gr≥3 (60 mg QD n = 5): 0 n (%)
- AST increased, All (60 mg QD n = 5): 0 n (%)
- AST increased, Gr≥3 (60 mg QD n = 5): 0 n (%)
- Abdominal distension, All (60 mg QD n = 5): 2 (40.0) n (%)
- Abdominal distension, Gr≥3 (60 mg QD n = 5): 0 n (%)
- Anemia (incl. hemoglobin decreased), All (60 mg QD n = 5): 0 n (%)
- Anemia (incl. hemoglobin decreased), Gr≥3 (60 mg QD n = 5): 0 n (%)
- Appetite decreased, All (60 mg QD n = 5): 1 (20.0) n (%)
- Appetite decreased, Gr≥3 (60 mg QD n = 5): 0 n (%)
- Asthenia, All (60 mg QD n = 5): 1 (20.0) n (%)
